Some results are limits rather than exact numbers.

The source of these data is patent US10640511B2, “Hepatitis B antiviral agents” (ENANTA PHARMACEUTICALS, INC., priority 2016, dated 2020).

In one data set the test system is HBV. In words: HepAD38 antiviral assay: reduction of viral product accumulation (virion DNA by qPCR; HBsAg/HBeAg ELISA). Type of data set: cell-based, hepatitis B virus (HBV). The following applies: Hepatitis B virus, 120 h; HepAD38 cells; 50% reduction of viral product accumulation relative to no drug controls; harvest five days after compound addition. As for the experimental part:
Methods: HepAD38 cells are maintained as previously reported (Ladner et al, Antimicrob. Agents Chemother. 1997, […], 1715). Briefly, cells are passaged upon attaining confluency in DMEM/F12 media in the presence of 10% FBS, Penn/Strep, 250 μg/mL G418, and 1 μg/ml tetracycline. Novel compounds are screened by first washing cells three times with PBS to remove tetracycline, and plating in 96 well plates at 35,000 cells/well. Compounds dissolved in DMSO are then diluted 1:200 into wells containing cells. Five days after compound addition, material is harvested for analysis. For an extended 8 day analysis, cells are plated and treated as described above, but media and compound are refreshed on d2 and d5 post initial treatment.
On harvest day, virion DNA is obtained by lysing with Sidestep Lysis and Stabilization Buffer and then quantified via quantitative real time PCR. Commercially available ELISA kits are used to quantitate the viral proteins HBsAg (Alpco) or HbeAg (US Biological) by following the manufacturer's recommended protocol after diluting samples to match the linear range of their respective assays. Irrespective of readout, compound concentrations that reduce viral product accumulation in the cell lysates or supernatants by 50% relative to no drug controls (EC50) are reported; EC50 ranges are as follows: A<0.1 μM; B 0.1-1 μM; C>1 μM.

The nature of data set [1]: Compound toxicity, ATPLite total ATP levels. The following applies: human, HepG2 cells, 50% reduction of total ATP levels (ATPLite) three days after compound addition. Type of data set: cell-based. As for the experimental part:
Compound toxicity is evaluated by seeding cells at 15,000 cells/well and treating with compound as described above.

Compound `Cn1ccc(C2=C3CC(NC(=O)OC(C)(C)C)CN3C(c3nccs3)=N[C@H]2c2ccc(F)cc2Cl)n1` (some centres unmarked) [Example 1] displayed an EC50 in the data set on HBV below 100 nM. The compound further registered a CC50 at 3 days in data set [1] (class symbols) below 10000 nM.

With `Cn1ccc(C2=C3CC(NS(=O)(=O)C4CC4)CN3C(c3nccs3)=N[C@H]2c2ccc(F)cc2Cl)n1` (some centres unmarked) [Example 2], the EC50 with HBV is below 100 nM. In addition, in data set [1] (class symbols), the CC50 at 3 days is above 25000 nM.

Regarding `Cn1ccc(C2=C3C[C@H](NS(=O)(=O)C4CC4)CN3C(c3nccs3)=N[C@H]2c2ccc(F)cc2Cl)n1` [Example 3], the EC50 in the data set on HBV was below 100 nM.

`Cn1ccc(C2=C3C[C@H](NS(=O)(=O)C4CC4)CN3C(c3nccs3)=NC2(C)c2ccc(F)cc2)n1` (some centres unmarked) [Example 4] yielded an EC50 in the data set with HBV below 100 nM.

In the data set with HBV, `Cn1ccc(C2=C3C[C@H](NS(=O)(=O)C4CC4)CN3C(c3nccs3)=N[C@@]2(C)c2ccc(F)cc2)n1` [Example 5] displayed an EC50 below 100 nM.

On to `Cn1ccc(C2=C3C[C@H](NS(C)(=O)=O)CN3C(c3nccs3)=N[C@H]2c2ccc(F)cc2Cl)n1` [Example 6], for which the EC50 in the data set with HBV was below 100 nM.

Compound `CCS(=O)(=O)N[C@H]1CC2=C(c3ccn(C)n3)[C@H](c3ccc(F)cc3Cl)N=C(c3nccs3)N2C1` [Example 7] returned an EC50 in the data set with HBV below 100 nM.

In the data set on HBV, `CC(C)S(=O)(=O)N[C@H]1CC2=C(c3ccn(C)n3)[C@H](c3ccc(F)cc3Cl)N=C(c3nccs3)N2C1` [Example 8] had an EC50 below 100 nM.

Turning to `Cn1ccc(C2=C3C[C@H](NS(=O)(=O)Cc4ccccc4)CN3C(c3nccs3)=N[C@H]2c2ccc(F)cc2Cl)n1` [Example 9], the EC50 in the data set with HBV was below 100 nM.

For `Cn1ccc(C2=C3C[C@H](NS(=O)(=O)C4(C)CC4)CN3C(c3nccs3)=N[C@H]2c2ccc(F)cc2Cl)n1` [Example 10], the EC50 in the data set with HBV is below 100 nM.

The compound `Cn1ccc(C2=C3C[C@H](NS(=O)(=O)C4CCC4)CN3C(c3nccs3)=N[C@H]2c2ccc(F)cc2Cl)n1` [Example 11] returned an EC50 in the data set on HBV below 100 nM.

In turn, `Cn1ccc(C2=C3C[C@H](NS(=O)(=O)C4CCCC4)CN3C(c3nccs3)=N[C@H]2c2ccc(F)cc2Cl)n1` [Example 12] displayed an EC50 in the data set with HBV below 100 nM.

In the data set on HBV, `Cn1ccc(C2=C3C[C@H](NS(=O)(=O)C4CCCCC4)CN3C(c3nccs3)=N[C@H]2c2ccc(F)cc2Cl)n1` [Example 13] came in with an EC50 below 100 nM.

`Cn1ccc(C2=C3C[C@H](NS(=O)(=O)c4ccccc4)CN3C(c3nccs3)=N[C@H]2c2ccc(F)cc2Cl)n1` [Example 14] yielded an EC50 with HBV below 100 nM.

`O=S(=O)(N[C@H]1CC2=C(c3ncco3)[C@H](c3ccc(F)cc3Cl)N=C(c3nccs3)N2C1)C1CC1` [Example 15] had an EC50 in the data set on HBV below 100 nM.

Regarding `Cn1ccc(C2=C3C[C@H](NS(=O)(=O)C4CC4)CN3C(c3nccs3)=N[C@@]2(C)c2ccc(F)c(F)c2)n1` [Example 16], the EC50 in the data set with HBV was below 100 nM.

In the data set with HBV, `[2H]C([2H])([2H])n1ccc(C2=C3C[C@H](NS(=O)(=O)C4CC4)CN3C(c3nccs3)=N[C@H]2c2ccc(F)cc2Cl)n1` [Example 17] gave an EC50 below 100 nM. In data set [1] (class symbols), this compound showed a CC50 at 3 days above 25000 nM.

As to `Cc1cnc(C2=C3C[C@H](NS(=O)(=O)C4CC4)CN3C(c3nccs3)=N[C@H]2c2ccc(F)cc2Cl)o1` [Example 18], the EC50 in the data set with HBV is below 100 nM. The CC50 at 3 days in data set [1] (class symbols) was above 25000 nM.

`Cn1cc(C2=C3C[C@H](NS(=O)(=O)C4CC4)CN3C(c3nccs3)=N[C@H]2c2ccc(F)cc2Cl)cn1` [Example 19] had an EC50 in the data set with HBV below 100 nM.

In the data set on HBV, `Cn1ccc(C2=C3C[C@H](NS(N)(=O)=O)CN3C(c3nccs3)=N[C@H]2c2ccc(F)cc2Cl)n1` [Example 20] came in with an EC50 below 100 nM. The compound further showed a CC50 at 3 days in data set [1] (class symbols) above 25000 nM.

For `Cc1coc(C2=C3C[C@H](NS(=O)(=O)C4CC4)CN3C(c3nccs3)=N[C@H]2c2ccc(F)cc2Cl)n1` [Example 21], the EC50 in the data set with HBV is below 100 nM.

In the data set on HBV, `CCn1ccc(C2=C3C[C@H](NS(=O)(=O)C4CC4)CN3C(c3nccs3)=N[C@H]2c2ccc(F)cc2Cl)n1` [Example 22] displayed an EC50 below 100 nM. Further, the CC50 at 3 days in data set [1] (numeric bound) is above 6000 nM.

`O=S(=O)(N[C@H]1CC2=C(c3ccccn3)[C@H](c3ccc(F)cc3Cl)N=C(c3nccs3)N2C1)C1CC1` [Example 23]: the EC50 in the data set on HBV lay in the range of 100 to 1000 nM.
